Assay results published in article PMC11513923, “Discovery of ZLC491 as a Potent, Selective, and Orally Bioavailable CDK12/13 PROTAC Degrader” (Journal of Medicinal Chemistry, 2024).

Experiments:
CDK12 = CDK12 (Homo sapiens, UniProt Q9NYV4); experiment: CDK12 degradation in MDA-MB-231 cells by immunoblotting; type: cell-based; parameters: Immunoblotting of CDK12 and CDK13 in MDA-MB-231 cells treated with increasing concentrations of ZLC491 for 15 h; endogenous in cells; host or cells: MDA-MB-231; settings: 0.3 μM; for Protein Degradation (%DMSO control, 0.3 μM) CDK12: MDA-MB-231 cells, 15 h, immunoblotting, normalized against α-tubulin; for Degradation rates of CDK12 at 0.3 μM: supplementary CSV
Sequence of CDK12 (Q9NYV4 whole entry): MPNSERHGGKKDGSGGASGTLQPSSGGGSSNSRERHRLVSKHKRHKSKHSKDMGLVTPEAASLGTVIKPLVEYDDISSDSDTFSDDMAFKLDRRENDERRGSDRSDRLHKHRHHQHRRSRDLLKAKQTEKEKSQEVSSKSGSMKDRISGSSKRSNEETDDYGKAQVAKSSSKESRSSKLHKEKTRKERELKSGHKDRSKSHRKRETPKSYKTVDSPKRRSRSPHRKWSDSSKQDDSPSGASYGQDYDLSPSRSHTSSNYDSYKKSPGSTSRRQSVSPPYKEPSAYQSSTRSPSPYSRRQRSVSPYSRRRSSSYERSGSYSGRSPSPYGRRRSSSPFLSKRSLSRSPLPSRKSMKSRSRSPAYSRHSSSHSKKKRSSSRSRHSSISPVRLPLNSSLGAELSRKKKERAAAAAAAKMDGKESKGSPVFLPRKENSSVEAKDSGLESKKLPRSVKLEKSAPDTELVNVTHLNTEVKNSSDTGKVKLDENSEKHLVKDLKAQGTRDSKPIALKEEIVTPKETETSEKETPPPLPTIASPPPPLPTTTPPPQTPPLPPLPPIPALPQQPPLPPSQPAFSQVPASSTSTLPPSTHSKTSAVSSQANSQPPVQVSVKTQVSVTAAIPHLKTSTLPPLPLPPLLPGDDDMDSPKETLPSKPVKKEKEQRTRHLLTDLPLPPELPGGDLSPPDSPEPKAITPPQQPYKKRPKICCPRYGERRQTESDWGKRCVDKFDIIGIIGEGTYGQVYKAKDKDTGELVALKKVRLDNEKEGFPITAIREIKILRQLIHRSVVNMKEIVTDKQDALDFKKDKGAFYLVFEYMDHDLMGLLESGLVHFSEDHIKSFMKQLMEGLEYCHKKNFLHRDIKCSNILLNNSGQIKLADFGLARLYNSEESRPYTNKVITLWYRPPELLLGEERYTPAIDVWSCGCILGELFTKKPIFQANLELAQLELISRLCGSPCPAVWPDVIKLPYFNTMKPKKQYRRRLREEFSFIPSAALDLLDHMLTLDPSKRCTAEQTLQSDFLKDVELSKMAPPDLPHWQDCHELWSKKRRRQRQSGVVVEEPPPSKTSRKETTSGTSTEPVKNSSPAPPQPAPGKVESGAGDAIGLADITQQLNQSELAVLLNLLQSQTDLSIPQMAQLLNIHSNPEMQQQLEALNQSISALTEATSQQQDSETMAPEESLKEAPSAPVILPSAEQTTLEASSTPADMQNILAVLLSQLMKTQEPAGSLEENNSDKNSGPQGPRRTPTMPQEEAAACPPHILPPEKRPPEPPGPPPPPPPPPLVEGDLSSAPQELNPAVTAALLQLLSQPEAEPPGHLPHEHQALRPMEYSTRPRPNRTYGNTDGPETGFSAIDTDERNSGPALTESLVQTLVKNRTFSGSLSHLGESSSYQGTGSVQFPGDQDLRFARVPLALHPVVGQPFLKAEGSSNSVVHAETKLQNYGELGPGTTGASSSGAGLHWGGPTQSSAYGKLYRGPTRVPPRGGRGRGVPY
Sequence of CDK12 (O75909 whole entry partner): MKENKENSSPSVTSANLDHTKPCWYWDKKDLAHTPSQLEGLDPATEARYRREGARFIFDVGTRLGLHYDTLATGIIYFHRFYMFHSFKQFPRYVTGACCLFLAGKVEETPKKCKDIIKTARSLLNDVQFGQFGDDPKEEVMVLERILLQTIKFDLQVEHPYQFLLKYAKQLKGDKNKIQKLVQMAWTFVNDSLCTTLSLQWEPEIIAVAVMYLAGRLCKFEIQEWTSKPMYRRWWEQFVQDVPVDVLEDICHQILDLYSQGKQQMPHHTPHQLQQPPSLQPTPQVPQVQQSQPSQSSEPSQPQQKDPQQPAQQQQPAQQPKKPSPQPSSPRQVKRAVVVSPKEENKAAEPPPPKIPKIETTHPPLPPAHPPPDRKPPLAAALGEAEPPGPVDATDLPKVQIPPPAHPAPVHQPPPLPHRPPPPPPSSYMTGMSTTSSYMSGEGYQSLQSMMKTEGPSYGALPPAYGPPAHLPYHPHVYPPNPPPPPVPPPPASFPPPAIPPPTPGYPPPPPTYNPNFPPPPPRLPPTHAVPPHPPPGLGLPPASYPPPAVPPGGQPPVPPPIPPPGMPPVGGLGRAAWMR
Protocol: (§1) The degradation efficiency of the new molecules was assessed by immunoblotting after treatment with the compounds at 0.3 μM in MD-MBA-231 cells for 15 h.
(§2) To further characterize the compound, we determined the half-degradation concentration (DC50) values of ZLC491 in MDA-MB-231 cells. […] We also treated MDA-MB-231 cells with 1 μM ZLC491 at various time points.
(§3) (A) Immunoblotting of CDK12 and CDK13 in MDA-MB-231 cells treated with increasing concentrations of ZLC491 for 15 h (left). Percent remaining CDK12 and CDK13 proteins were plotted for DC50 determination (right). Protein levels were quantified using ImageJ and normalized to corresponding α-tubulin, then plotted using Graphpad Prism 8.0. The data were representative of three independent experiments; (B) immunoblotting of CDK12 and CDK13 proteins in MDA-MB-231 cells treated with ZLC491 for various time points; immunoblotting of CDK12 and CDK13 in HCC38 (C) and MDA-MB-436 (D) cells treated with increasing concentrations of ZLC491 for 15 h. α-Tubulin was used as a loading control. TEXT PRINTED IN THE PICTURE: (A) ZLC491: MDA-MB-231: CDK12 DC50 = 0.032μM; MDA-MB-231: CDK13 DC50 = 0.028μM DOUBTS OF THE COPYIST ABOUT THIS PICTURE: ZLC491, CDK12 DC50: 0.032 read from small print, the digits 3 and 2 are uncertain / ZLC491, CDK13 DC50: 0.028 read from small print, the last digit may be 8, 6 or 3
(§4) Generally, the tested cells were washed by ice-cold PBS buffer (Gibco) and lysed with an SDS lysis buffer (62.5 mM Tris, 2% w/v SDS, 10 glycerol, 50 mM DTT, 0.01% w/v bromophenol blue) on ice, after which the protein lysate samples were collected to 1.5 mL microcentrifuge tubes and treated with ultrasonic for 10 s, following with a 100 °C incubation for 10 min and a 4 °C centrifugation of 12000 rpm for 10 min. An equal amount of protein was loaded to 4–8% Bis-Tris gels and underwent an SDS-PAGE electrophoresis at 55V for 30 min and 95V for 90 min. Proteins on gels were then transferred to a polyvinylidene difluoride (PVDF) membrane (Bio-Rad) with a wet electro transfer system (Bio-Rad). The PVDF membrane was cut into bands and incubated in a blocking reagent (5% defatted milk powder dissolved in TBST) at room temperature for 1–2 h. Incubate membrane and primary antibody (at the appropriate dilution and diluent as recommended in the product webpage) at 4 °C for 12–14 h, followed with three times washes by TBST. The washed membranes were incubated in a secondary antibody solution (HRP-linked antirabbit IgG or antimouse IgG (CST), 1:2000 diluted into TBST) at room temperature for 2 h. Membranes were photographed in Amersham Imager 800 system using StarSignal plus regent (GenStar) or Omni-ECL reagent (EpiZyme). Compounds MG132, MLN4924, Bafilomycin A1 and pomalidomide were purchased from MedChemExpress (MCE) LLC.

CDK13 = biological target: T1, CDK13 (Homo sapiens, UniProt Q14004); experiment: CDK13 degradation in MDA-MB-231 cells by immunoblotting; type: cell-based; settings: 0.3 μM; for Protein Degradation (%DMSO control, 0.3 μM) CDK13: MDA-MB-231 cells, 15 h, immunoblotting, normalized against α-tubulin; for Degradation rates of CDK13 at 0.3 μM: supplementary CSV;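 for Protein Degradation (%DMSO control, 0.3 μM) CDK13: percent of CDK13 protein degraded relative to DMSO control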
T1 construct: Immunoblotting of CDK12 and CDK13 in MDA-MB-231 cells treated with increasing concentrations of ZLC491 for 15 h; endogenous in cells; host or cells: MDA-MB-231
T1 sequence (Q14004 whole entry): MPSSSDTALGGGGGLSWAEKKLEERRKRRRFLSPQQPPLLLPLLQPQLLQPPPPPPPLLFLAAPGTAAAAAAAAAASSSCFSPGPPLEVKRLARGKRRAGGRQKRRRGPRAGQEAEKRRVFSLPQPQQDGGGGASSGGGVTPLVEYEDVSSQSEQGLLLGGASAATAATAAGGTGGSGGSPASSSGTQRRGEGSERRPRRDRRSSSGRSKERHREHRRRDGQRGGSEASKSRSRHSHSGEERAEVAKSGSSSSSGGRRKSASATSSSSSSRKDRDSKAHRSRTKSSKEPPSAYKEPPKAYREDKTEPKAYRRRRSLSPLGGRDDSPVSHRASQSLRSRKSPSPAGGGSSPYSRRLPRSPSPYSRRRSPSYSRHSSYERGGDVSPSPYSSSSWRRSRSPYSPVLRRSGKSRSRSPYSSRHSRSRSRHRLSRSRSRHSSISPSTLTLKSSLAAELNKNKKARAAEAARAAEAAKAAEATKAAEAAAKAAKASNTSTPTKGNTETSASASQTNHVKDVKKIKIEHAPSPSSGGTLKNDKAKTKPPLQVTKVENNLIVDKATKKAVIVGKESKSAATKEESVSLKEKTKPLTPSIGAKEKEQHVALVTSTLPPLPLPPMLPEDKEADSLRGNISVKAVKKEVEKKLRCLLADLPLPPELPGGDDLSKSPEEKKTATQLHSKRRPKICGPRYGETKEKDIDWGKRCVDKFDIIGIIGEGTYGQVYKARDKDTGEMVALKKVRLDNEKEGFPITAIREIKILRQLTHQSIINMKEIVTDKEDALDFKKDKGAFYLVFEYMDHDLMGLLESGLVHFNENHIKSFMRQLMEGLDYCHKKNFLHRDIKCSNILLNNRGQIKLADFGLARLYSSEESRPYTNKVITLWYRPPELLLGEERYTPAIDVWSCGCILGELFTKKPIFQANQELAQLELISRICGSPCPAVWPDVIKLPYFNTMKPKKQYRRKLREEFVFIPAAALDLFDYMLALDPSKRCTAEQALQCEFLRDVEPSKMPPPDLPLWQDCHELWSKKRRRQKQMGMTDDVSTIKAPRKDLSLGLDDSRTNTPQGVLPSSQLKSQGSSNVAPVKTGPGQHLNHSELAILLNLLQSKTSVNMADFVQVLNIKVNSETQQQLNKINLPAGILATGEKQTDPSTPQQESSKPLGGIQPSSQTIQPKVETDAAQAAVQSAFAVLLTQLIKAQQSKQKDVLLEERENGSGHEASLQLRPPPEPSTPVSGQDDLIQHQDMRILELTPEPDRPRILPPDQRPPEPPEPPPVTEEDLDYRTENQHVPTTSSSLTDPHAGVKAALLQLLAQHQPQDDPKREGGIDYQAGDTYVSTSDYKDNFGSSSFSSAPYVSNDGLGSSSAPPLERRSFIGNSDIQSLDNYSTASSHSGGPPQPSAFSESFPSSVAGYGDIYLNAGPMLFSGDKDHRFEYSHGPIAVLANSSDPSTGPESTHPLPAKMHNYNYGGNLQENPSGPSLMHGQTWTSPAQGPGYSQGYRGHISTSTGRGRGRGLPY
T1 sequence (O75909 whole entry partner): as the sequence (O75909 whole entry partner) above
Protocol: as §1, §2, §3, §4

Protein Degradation (%DMSO control, 0.3 μM) CDK12 (CDK12) | Degradation rates of CDK12 at 0.3 μM (CDK12) | Protein Degradation (%DMSO control, 0.3 μM) CDK13 (CDK13) | Degradation rates of CDK13 at 0.3 μM (CDK13) | SMILES
35% | 35% | 38% | 38% | N#Cc1ccc(N[C@H]2CC[C@H](N(C(=O)NCc3ccccc3)c3ccc(N4CCN(C(=O)C5CN(c6ccc7c(c6)C(=O)N(C6CCC(=O)NC6=O)C7=O)C5)CC4)cc3)CC2)nc1 (stereo partly drawn) [4a, 3-Benzyl-1-((1r,4r)-4-((5-cyanopyridin-2-yl)amino)cyclohexyl)-1-(4-(4-(1-(2-(2,6-dioxopiperidin-3-yl)-1,3-dioxoisoindolin-5-yl)azetidine-3-carbonyl)piperazin-1-yl)phenyl)urea]
61% | 61% | 65% | 65% | N#Cc1ccc(N[C@H]2CC[C@H](N(C(=O)NCc3ccccc3)c3ccc(N4CCN(C(=O)C5CCN(c6ccc7c(c6)C(=O)N(C6CCC(=O)NC6=O)C7=O)C5)CC4)cc3)CC2)nc1 (stereo partly drawn) [4b, 3-Benzyl-1-((1r,4r)-4-((5-cyanopyridin-2-yl)amino)cyclohexyl)-1-(4-(4-(1-(2-(2,6-dioxopiperidin-3-yl)-1,3-dioxoisoindolin-5-yl)pyrrolidine-3-carbonyl)piperazin-1-yl)phenyl)urea]
38% | 38% | 51% | 51% | N#Cc1ccc(N[C@H]2CC[C@H](N(C(=O)NCc3ccccc3)c3ccc(N4CCN(C(=O)C5CCN(c6ccc7c(c6)C(=O)N(C6CCC(=O)NC6=O)C7=O)CC5)CC4)cc3)CC2)nc1 (stereo partly drawn) [4c, 3-Benzyl-1-((1r,4r)-4-((5-cyanopyridin-2-yl)amino)cyclohexyl)-1-(4-(4-(1-(2-(2,6-dioxopiperidin-3-yl)-1,3-dioxoisoindolin-5-yl)piperidine-4-carbonyl)piperazin-1-yl)phenyl)urea]
60% | 60% | 71% | 71% | N#Cc1ccc(N[C@H]2CC[C@H](N(C(=O)NCc3ccccc3)c3ccc(N4CCN(CC5CN(c6ccc7c(c6)C(=O)N(C6CCC(=O)NC6=O)C7=O)C5)CC4)cc3)CC2)nc1 (stereo partly drawn) [4d, 3-Benzyl-1-((1r,4r)-4-((5-cyanopyridin-2-yl)amino)cyclohexyl)-1-(4-(4-((1-(2-(2,6-dioxopiperidin-3-yl)-1,3-dioxoisoindolin-5-yl)azetidin-3-yl)methyl)piperazin-1-yl)phenyl)urea]
50% | 50% | 70% | 70% | N#Cc1ccc(N[C@H]2CC[C@H](N(C(=O)NCc3ccccc3)c3ccc(N4CCN(C[C@@H]5CCN(c6ccc7c(c6)C(=O)N(C6CCC(=O)NC6=O)C7=O)C5)CC4)cc3)CC2)nc1 (stereo partly drawn) [4e, 3-Benzyl-1-((1r,4s)-4-((5-cyanopyridin-2-yl)amino)cyclohexyl)-1-(4-(4-(((3S)-1-(2-(2,6-dioxopiperidin-3-yl)-1,3-dioxoisoindolin-5-yl)pyrrolidin-3-yl)methyl)piperazin-1-yl)phenyl)urea]
59% | 59% | 64% | 64% | N#Cc1ccc(N[C@H]2CC[C@H](N(C(=O)NCc3ccccc3)c3ccc(N4CCN(C[C@H]5CCN(c6ccc7c(c6)C(=O)N(C6CCC(=O)NC6=O)C7=O)C5)CC4)cc3)CC2)nc1 (stereo partly drawn) [4f, 3-Benzyl-1-((1r,4r)-4-((5-cyanopyridin-2-yl)amino)cyclohexyl)-1-(4-(4-(((3R)-1-(2-(2,6-dioxopiperidin-3-yl)-1,3-dioxoisoindolin-5-yl)pyrrolidin-3-yl)methyl)piperazin-1-yl)phenyl)urea]
